pEC50: −log10 of the molar value. Read-outs that look alike come from different tables or passages of the source.
Columns and labels:
NEK7 = NEK7 (Homo sapiens (Human), UniProt Q8TDX7+Q96SW2); experiment: NEK7 NanoBiT degradation assay in Cal51 NEK7 NanoBiT cell line; type: cell-based; conditions: Cal51 NEK7 NanoBiT cells, 24 hours; for Dmax: CAL-51
How it was run: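 EC50 comes from a 4-parameter fit of control-normalized luminescence. The luminescence reports HiBiT-NEK7 (endogenous knock-in) complemented by stably expressed LgBiT in Cal51 cells after 24 h compound exposure at 37 °C. Final concentrations ran 1 μM to 0.05 nM, with Endurazine substrate present in the medium throughout.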

CRBN-DDB1 = CRBN-DDB1 (Homo sapiens (Human), UniProt Q96SW2); experiment: Compound binding to CRBN by HTRF assay
How it was run: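 Ki calculated via Cheng-Prusoff from geometric-mean EC50 values, after normalizing the HTRF ratio to lenalidomide (active) and DMSO (neutral) controls. Compounds (11 points, 1:3 steps) incubated 30 min at ambient temperature with CRBN-DDB1 2.5 nM, anti-His Tb cryptate and Cy5-thalidomide tracer 100 nM.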

[1] = NEK7 degradation, read-out: NanoBiT Dmax
[2] = NEK7 degradation, read-out: NanoBiT DC50

CRBN-DDB1, sequence (Q96SW2 whole entry): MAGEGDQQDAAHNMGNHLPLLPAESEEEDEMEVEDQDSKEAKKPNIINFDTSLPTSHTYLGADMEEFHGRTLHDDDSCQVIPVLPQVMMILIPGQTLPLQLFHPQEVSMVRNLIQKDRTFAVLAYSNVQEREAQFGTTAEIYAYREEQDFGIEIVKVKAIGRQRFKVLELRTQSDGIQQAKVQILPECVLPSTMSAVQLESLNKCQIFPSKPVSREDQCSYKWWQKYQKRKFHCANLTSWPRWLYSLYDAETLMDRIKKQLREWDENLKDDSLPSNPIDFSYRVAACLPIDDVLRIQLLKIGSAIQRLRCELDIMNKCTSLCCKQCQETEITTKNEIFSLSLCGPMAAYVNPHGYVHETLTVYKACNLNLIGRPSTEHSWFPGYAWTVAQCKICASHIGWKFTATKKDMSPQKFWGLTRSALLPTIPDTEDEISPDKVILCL
CRBN-DDB1, sequence (Q16531 whole entry partner): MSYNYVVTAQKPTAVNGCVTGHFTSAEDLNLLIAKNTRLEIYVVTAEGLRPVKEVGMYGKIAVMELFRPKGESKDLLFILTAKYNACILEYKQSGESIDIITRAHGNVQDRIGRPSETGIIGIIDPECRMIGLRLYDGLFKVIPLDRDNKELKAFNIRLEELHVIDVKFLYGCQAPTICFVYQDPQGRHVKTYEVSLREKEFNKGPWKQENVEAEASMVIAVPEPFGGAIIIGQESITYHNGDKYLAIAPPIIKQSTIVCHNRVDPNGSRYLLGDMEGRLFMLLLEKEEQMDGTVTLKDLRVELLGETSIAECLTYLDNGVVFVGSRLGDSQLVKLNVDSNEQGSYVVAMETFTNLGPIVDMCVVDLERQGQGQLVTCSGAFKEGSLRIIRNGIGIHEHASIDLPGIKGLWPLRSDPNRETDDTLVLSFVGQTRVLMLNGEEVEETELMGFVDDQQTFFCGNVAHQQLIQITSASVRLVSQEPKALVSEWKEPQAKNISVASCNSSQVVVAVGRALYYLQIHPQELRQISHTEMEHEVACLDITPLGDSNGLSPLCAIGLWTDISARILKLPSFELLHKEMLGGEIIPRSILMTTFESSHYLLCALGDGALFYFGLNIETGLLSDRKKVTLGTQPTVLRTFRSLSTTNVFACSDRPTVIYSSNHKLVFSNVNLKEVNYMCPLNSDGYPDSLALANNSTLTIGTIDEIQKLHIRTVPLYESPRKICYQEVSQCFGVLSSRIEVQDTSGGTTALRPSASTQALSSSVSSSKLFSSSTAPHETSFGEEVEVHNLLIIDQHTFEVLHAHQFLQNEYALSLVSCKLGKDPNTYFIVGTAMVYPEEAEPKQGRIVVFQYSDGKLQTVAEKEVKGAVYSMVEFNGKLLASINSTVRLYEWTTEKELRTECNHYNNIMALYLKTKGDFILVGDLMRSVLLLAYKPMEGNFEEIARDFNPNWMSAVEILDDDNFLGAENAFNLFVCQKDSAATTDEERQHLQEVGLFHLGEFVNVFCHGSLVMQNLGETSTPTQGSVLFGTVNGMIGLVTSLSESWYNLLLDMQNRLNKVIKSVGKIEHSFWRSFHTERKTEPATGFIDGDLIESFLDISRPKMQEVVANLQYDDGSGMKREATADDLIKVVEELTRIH
NEK7, sequence (Q8TDX7 whole entry): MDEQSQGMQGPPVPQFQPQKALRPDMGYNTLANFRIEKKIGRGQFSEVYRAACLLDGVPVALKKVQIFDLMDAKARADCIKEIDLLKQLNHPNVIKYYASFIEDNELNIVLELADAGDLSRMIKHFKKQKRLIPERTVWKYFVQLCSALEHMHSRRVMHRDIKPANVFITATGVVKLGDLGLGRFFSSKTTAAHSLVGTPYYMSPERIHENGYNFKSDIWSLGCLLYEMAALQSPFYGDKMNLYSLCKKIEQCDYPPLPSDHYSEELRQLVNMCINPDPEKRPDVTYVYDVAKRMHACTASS
NEK7, sequence (Q96SW2 whole entry): as the sequence (Q96SW2 whole entry) above
NEK7, sequence (Q16531 2-1140 partner): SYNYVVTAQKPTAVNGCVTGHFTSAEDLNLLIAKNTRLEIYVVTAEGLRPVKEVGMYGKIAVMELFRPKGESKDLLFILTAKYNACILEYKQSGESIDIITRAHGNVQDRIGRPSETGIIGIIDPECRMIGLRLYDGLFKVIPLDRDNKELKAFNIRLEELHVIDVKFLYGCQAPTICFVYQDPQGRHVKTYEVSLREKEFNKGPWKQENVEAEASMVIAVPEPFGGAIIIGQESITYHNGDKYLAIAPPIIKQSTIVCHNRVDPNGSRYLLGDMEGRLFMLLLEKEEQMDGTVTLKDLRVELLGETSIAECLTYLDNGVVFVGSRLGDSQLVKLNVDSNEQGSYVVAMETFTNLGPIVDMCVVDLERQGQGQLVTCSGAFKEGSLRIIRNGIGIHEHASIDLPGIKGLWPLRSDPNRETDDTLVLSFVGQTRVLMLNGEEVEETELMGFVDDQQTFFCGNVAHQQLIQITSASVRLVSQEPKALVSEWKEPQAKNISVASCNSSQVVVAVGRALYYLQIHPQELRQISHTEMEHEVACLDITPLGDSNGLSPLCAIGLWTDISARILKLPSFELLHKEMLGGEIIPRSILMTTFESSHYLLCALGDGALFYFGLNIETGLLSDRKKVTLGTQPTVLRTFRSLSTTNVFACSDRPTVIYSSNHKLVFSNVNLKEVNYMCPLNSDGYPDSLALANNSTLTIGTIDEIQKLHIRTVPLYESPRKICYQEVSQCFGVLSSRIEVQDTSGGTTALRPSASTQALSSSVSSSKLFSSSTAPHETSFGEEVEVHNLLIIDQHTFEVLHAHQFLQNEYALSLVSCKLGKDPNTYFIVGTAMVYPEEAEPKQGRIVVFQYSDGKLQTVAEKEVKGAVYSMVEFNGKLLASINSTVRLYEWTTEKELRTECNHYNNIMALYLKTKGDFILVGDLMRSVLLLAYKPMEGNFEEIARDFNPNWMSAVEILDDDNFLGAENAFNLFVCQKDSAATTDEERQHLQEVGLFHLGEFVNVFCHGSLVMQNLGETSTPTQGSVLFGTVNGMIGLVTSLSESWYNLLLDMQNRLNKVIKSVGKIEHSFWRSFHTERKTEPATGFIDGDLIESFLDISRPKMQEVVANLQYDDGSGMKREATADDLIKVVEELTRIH

Row | Structure (SMILES) | Dmax (NEK7; read-out: NEK7 NanoBiT Dmax) | Dmax (NEK7; [1]) | DC50 (NEK7; read-out: NEK7 NanoBiT DC50) | DC50 (NEK7; [2]) | pEC50 (CRBN-DDB1) | pEC50 (CRBN-DDB1; HTRF class, Cereblon binding)
1 | CN1Cc2ccccc2CC1C(=O)NCc1cc(Cl)c(C2CCC(=O)NC2=O)c(Cl)c1 (stereo not drawn) [Compound 48] | 66% | 50 to 75% | 54 nM | ≤ 100 nM | 6.89 | 6.00 to 7.00
2 | CC(C)(C(=O)NCc1cc(Cl)c(C2CCC(=O)NC2=O)c(Cl)c1)c1cnc(C2CC2)cn1 (stereo not drawn) [Compound 232] | 93% | > 75% | 3 nM | ≤ 100 nM | 6.82 | 6.00 to 7.00
3 | CC(C)(C(=O)NCc1cc(Cl)c(C2CCC(=O)NC2=O)c(Cl)c1)c1ccccc1F (stereo not drawn) [Compound 26] | 96% | > 75% | 2 nM | ≤ 100 nM | 7.15 | ≥ 7.00
4 | Cn1ncc2ccc(C3(C(=O)NCc4cc(Cl)c(C5CCC(=O)NC5=O)c(Cl)c4)CC(=O)C3)cc21 (stereo not drawn) [Compound 134, N-(3,5-dichloro-4-(2,6-dioxopiperidin-3-yl)benzyl)-1-(1-methyl-1H-indazol-6-yl)-3-oxocyclobutane-1-carboxamide] | 93% | > 75% | 2 nM | ≤ 100 nM | 7.15 | ≥ 7.00
5 | CC(C)(C(=O)NCc1ccc(C2CCC(=O)NC2=O)c(Cl)c1)c1nc2ccccc2o1 (stereo not drawn) [Compound 246, 2-(benzo[d]oxazol-2-yl)-N-(3-chloro-4-(2,6-dioxopiperidin-3-yl)benzyl)-2-methylpropanamide] | 82% | > 75% | 27 nM | ≤ 100 nM | 6.74 | 6.00 to 7.00
6 | O=C1CCC(c2c(Cl)cc(CNC(=O)C3(c4ccccc4)CCOCC3)cc2Cl)C(=O)N1 (stereo not drawn) [Compound 128, N-(3,5-dichloro-4-(2,6-dioxopiperidin-3-yl)benzyl)-4-phenyltetrahydro-2H-pyran-4-carboxamide] | 95% | > 75% | 8 nM | ≤ 100 nM | 7.40 | ≥ 7.00
7 | CC(C)(C(=O)NCc1cc(Cl)c(C2CCC(=O)NC2=O)c(Cl)c1)c1ccc2ncncc2c1 (stereo not drawn) [Compound 33] | 96% | > 75% | 2 nM | ≤ 100 nM | 6.92 | 6.00 to 7.00
8 | CC(C)(C(=O)NCc1cc(Cl)c(C2CCC(=O)NC2=O)c(Cl)c1)c1ncoc1C(F)(F)F (stereo not drawn) [Compound 199] | 67% | 50 to 75% | 99 nM | ≤ 100 nM | 6.85 | 6.00 to 7.00
9 | CC(C)(C(=O)NCc1cc(Cl)c(C2CCC(=O)NC2=O)c(Cl)c1)c1ncncc1F (stereo not drawn) [Compound 8] | 93% | > 75% | 6 nM | ≤ 100 nM | 6.68 | 6.00 to 7.00
10 | O=C1CCC(c2c(Cl)cc(CNC(=O)C3(c4ccc(F)cc4)COC3)cc2Cl)C(=O)N1 (stereo not drawn) [Compound 140] | 89% | > 75% | 14 nM | ≤ 100 nM | 7.05 | ≥ 7.00
11 | O=C1CCC(c2c(Cl)cc(CNC(=O)C3(c4ccc(F)cc4)CCOCC3)cc2Cl)C(=O)N1 (stereo not drawn) [Compound 142] | 94% | > 75% | 3 nM | ≤ 100 nM | 7.30 | ≥ 7.00
12 | CC(C)(C(=O)NCc1cc(Cl)c(C2CCC(=O)NC2=O)c(Cl)c1)N1Cc2ccccc2C1 (stereo not drawn) [Compound 170, N-(3,5-dichloro-4-(2,6-dioxopiperidin-3-yl)benzyl)-2-(isoindolin-2-yl)-2-methylpropanamide] | 73% | 50 to 75% | 55 nM | ≤ 100 nM | 6.74 | 6.00 to 7.00
13 | CC(C)(C(=O)NCc1cc(Cl)c(C2CCC(=O)NC2=O)c(Cl)c1)c1ccc(=O)[nH]c1 (stereo not drawn) [Compound 79] | 83% | > 75% | 92 nM | ≤ 100 nM | 6.60 | 6.00 to 7.00
14 | CC(C)(C(=O)NCc1cc(Cl)c(C2CCC(=O)NC2=O)c(Cl)c1)c1ccc2[nH]cnc2c1 (stereo not drawn) [Compound 69] | 97% | > 75% | 1 nM | ≤ 100 nM | 7.22 | ≥ 7.00
15 | COc1conc1C(C)(C)C(=O)NCc1cc(Cl)c(C2CCC(=O)NC2=O)c(Cl)c1 (stereo not drawn) [Compound 227, N-(3,5-dichloro-4-(2,6-dioxopiperidin-3-yl)benzyl)-2-(4-methoxyisoxazol-3-yl)-2-methylpropanamide] | 92% | > 75% | 6 nM | ≤ 100 nM | 6.96 | 6.00 to 7.00

From patent US20250243180A1, “TARGETED PROTEIN DEGRADATION” (Monte Rosa Therapeutics AG, priority 2023, published 2025)
